Earlier results, collected in US5424332A, “Pharmaceutical composition and process for the production thereof” (priority 1993, dated 1995).

Key:
[1] = high doses; parenteral, dermal and, in particular, peroral administration
[2] = tested on: Ehrlich ascites tumor; details: mice
[3] = tested on: mitomycin C toxic effects
[4] = tested on: psoriasis

Structure (SMILES)	adverse effects and toxicity [1]	growth of the Ehrlich ascites tumor [2]	toxic effects of mitomycin C [3]	anti-psoriatic action [4]
O=C(O)/C(O)=C(\O)C(=O)O [dihydroxy fumaric acid]	unacceptable rate of adverse effects and high toxicity			
NC(=O)/C=C/C(N)=O [fumaramide]	unacceptable rate of adverse effects and high toxicity			
O=C(O)/C=C/C(=O)O [fumaric acid]	unacceptable rate of adverse effects and high toxicity	impedes the growth	reduces the toxic effects	anti-psoriatic
N#C/C=C/C#N [fumaronitrile]	unacceptable rate of adverse effects and high toxicity			
